Test results reported in patent US10806798B2, “Compound with effects of thrombolysis, free radical scavenging and thrombus-targeting” (Shanghai Lumosa Therapeutics Co., Ltd., priority 2012, dated 2020).

Experiments:
rats with stroke [1] = experiment: Successive treatments starting 4 h after the onset of stroke (Zealonga scores); format: in vivo, SD rats; conditions: for number of rats scored Score 0 / number of rats scored Score 1 / number of rats scored Score 2: urokinase 20000 IU/kg once per day from 4 h after stroke onset, n=6
Description: The efficacy was represented by neural function scores, and a lower score indicates higher efficacy. A 10% chloral hydrate solution was injected intraperitoneally into male SD rats at a dosage of 400 mg/kg body weight for anesthesia. A longitudinal incision was made at the center of the neck, and the right carotid common artery trunk was dissected (about 3 cm in length). Carotid external artery branches were each dissected and ligated at the hyoid level, and the carotid internal artery was dissected at the swollen part of the neck. The open incision in the carotid internal artery and the proximal end of the common carotid artery were occluded respectively with noninvasive arterial clips, and the distal end of the carotid external artery was ligated. A catheter containing 0.5 mL thrombus suspension in normal saline was inserted in the carotid external artery trunk. At the same time when the clip on the carotid internal artery was released, the 0.5 mL thrombus suspension in normal saline in the catheter slowly flew from the carotid external artery to its proximal end, and then was injected into the arteries in brain through the carotid internal artery. Subsequently, the proximal end of the carotid artery was ligated, the arterial clips on the carotid internal artery and the common carotid artery were released, and blood flow was restored. After the wound was stitched up, 20,000 IU penicillin was intramuscularly injected for prevention from infection. After 4 h, compound Ie in normal saline (at a dosage of 1 μmol/kg, n=1), urokinase in normal saline (at a dosage of 20000 IU/kg, n=6) or tPA in normal saline (at a dosage of 3 mg/kg, n=6) was infused through the tail vein. Infusion of compound Ie in normal saline through rat tail vein was carried out once per day for 6 consecutive days, observed for 7 days. The rats were compared to themselves each day, and evaluated for degree of damage in neural function by the Zealonga method. Alternatively, infusion of urokinase in normal saline through rat tail vein was carried out once per day for two consecutive days, the rats were compared to themselves each day, and evaluated for the degree of damage in neural function by the Zealonga method. Alternatively, infusion of tPA in normal saline through rat tail vein was carried out once per day for two consecutive days, the rats were compared to themselves each day, and evaluated for the degree of damage in neural function by the Zealonga method. A score of 0 indicated no sign of loss in neural function, 1 indicated the front limbs on the undamaged side could not stretch out, 2 indicated walking toward the undamaged side, 3 indicated tail-chasing walking in circles toward the undamaged side, 4 indicated involuntary walking with disturbance of consciousness, and 5 indicated death.

rats with stroke [2] = experiment: Immediate treatment after stroke onset with different dosages of Ie (Zealonga scores); format: in vivo, SD rats
Description: A 10% chloral hydrate solution (400 mg/kg) was injected intraperitoneally into male SD rats (250 to 300 g) for anesthesia. An incision of about 2 cm in length was longitudinally made slightly on the right to the center of the neck, and the right carotid common artery, carotid external artery and carotid internal artery were dissected along the margin of the inner side of sternocleidomastoid muscles. The open incision in the carotid internal artery and the proximal end of the common carotid artery were occluded respectively with noninvasive arterial clips. A small incision was made on the carotid external artery, and the distal end of the carotid external artery was ligated. The arterial clip at the proximal end of the carotid external artery was released, and 10 μl blood was drawn before the proximal end of the common carotid artery was again occluded with a noninvasive arterial clip. The 10 μl blood drawn was placed in a 1 mL EP vial and kept at RT for 30 min until coagulation of blood, and then transferred into a −20° C. refrigerator for 1 h to allow solid coagulation. After 1 h, the blood clots were taken out, added into 1 mL saline, and then broken into relatively uniform microthrombus by using a steel spatula. The microthrombus suspension was then transferred into a 1 mL injector until use. At the same time when the clip on the carotid internal artery of the rat was released, the 1 mL thrombus suspension in the injector was slowly injected from the carotid external artery of the rat to its proximal end, and then was injected into the brain of the rat through the carotid internal artery. Subsequently, the proximal end of the carotid external artery was ligated, the arterial clips on the carotid internal artery and the carotid common artery were released, and blood flow was restored. Injection of urokinase in normal saline (positive control group, at a dosage of 20000 IU/kg), tPA in normal saline (positive control group, at a dosage of 3 mg/kg), normal saline (blank control group, at a dosage of 3 mL/kg), or compound Ie in normal saline (at a dosage of 1 μmol/kg, 0.1 μmol/kg or 0.01 μmol/kg) was carried out. 24 h after the rats were awake, the degree of damage in neural function was evaluated by the Zealonga method. A score of 0 indicated no sign of loss in neural function, 1 indicated the front limbs on the undamaged side could not stretch out, 2 indicated walking toward the undamaged side, 3 indicated tail-chasing walking in circles toward the undamaged side, 4 indicated involuntary walking with disturbance of consciousness, and 5 indicated death. As shown in the results, in rats receiving immediate treatment after the onset of stroke with […] compound Ie, the percentage of rats with a neural function score of 0 was 60%, 30%, and 0%, respectively; and the percentage of rats with a neural function score of 1 was 20%, 30%, and 10%, respectively.

Question: Which results are given for urokinase?
Answer: number of rats scored Score 0 (rats with stroke [1]; Day 1): 2 rats; number of rats scored Score 1 (rats with stroke [1]; Day 1): 3 rats; number of rats scored Score 2 (rats with stroke [1]; Day 1): 1 rat rats; number of rats scored Score 0 (rats with stroke [1]; Day 2): 3 rats; number of rats scored Score 1 (rats with stroke [1]; Day 2): 1 rat^ rats; number of rats scored Score 2 (rats with stroke [1]; Day 2): 1 rat rats; rats died (rats with stroke [1]; out of 6 rats, within 48 h, urokinase 20000 IU/kg each day from 4 h after stroke onset): 2; autopsy on the dead rats (rats with stroke [1]; urokinase 20000 IU/kg each day from 4 h after stroke onset): hemorrhage in internal organs, particularly severe hemorrhage in lungs; percentage of rats with a neural function score of 0 (rats with stroke [2]; 20000 IU/kg urokinase): 10%; percentage of rats with a neural function score of 1 (rats with stroke [2]; 20000 IU/kg urokinase): 50%; number of rats scored Score 0 (rats with stroke [2]; urokinase 20000 IU/kg, n = 10): 1; number of rats scored Score 1 (rats with stroke [2]; urokinase 20000 IU/kg, n = 10): 5; number of rats scored Score 2 (rats with stroke [2]; urokinase 20000 IU/kg, n = 10): 0; number of rats scored Score 3 (rats with stroke [2]; urokinase 20000 IU/kg, n = 10): 3; number of rats scored Score 4 (rats with stroke [2]; urokinase 20000 IU/kg, n = 10): 1; number of rats scored Score 5 (rats with stroke [2]; urokinase 20000 IU/kg, n = 10): 0
